For ten molecules, inhibition and Activity results are on record in ChEMBL document CHEMBL4417632, “Inhibitors of alpha-amino-beta-carboxymuconic acid semialdehyde decarboxylase” (2017).

In general, inhibition refers to the percentage by which the read-out fell short of the control.

Activity calls are given as the source filed them. No cut-off for these calls is given here.

Data set [1] concerns the target 2-amino-3-carboxymuconate-6-semialdehyde decarboxylase (Homo sapiens) (UniProt Q8TDX5). Put plainly: Inhibition of ACMSD in human primary hepatocytes assessed as increase in NAD concentration at 0.5 uM following compound replacement every 24 hrs by LC-MS/MS analysis. Type of data set: cell-based.
Data set [2] addresses 2-amino-3-carboxymuconate-6-semialdehyde decarboxylase (Mus musculus) (UniProt Q8R519). The data set can be described thus: Inhibition of ACMSD in mouse AML12 cells assessed as induction of SOD2 activity incubated for 24 hrs. Type of data set: cell-based.
Data set [3] shares this target. Put plainly: Inhibition of ACMSD in C57BL/6J mouse primary hepatocytes assessed as induction of SOD2 activity incubated for 24 hrs. Type of data set: cell-based.
The target is the same in data set [4]. The data set can be described thus: Inhibition of ACMSD in mouse AML12 cells assessed as increase in Sod2 mRNA expression incubated for 24 hrs by RT-qPCR analysis. Type of data set: cell-based. (Real-time PCR tracks product formation cycle by cycle.)
The nature of data set [5]: Cytotoxicity in mouse AML-12 cells assessed as reduction inc ell viability at 10 nM to 300 uM incubated for 4 hrs by LDH release assay. Type of data set: cell-based. On the technique in general: Release of lactate dehydrogenase indicates damage to the cell membrane.
In a further data set the test system is HepG2. The data set can be described thus: Cytotoxicity against human HepG2 cells assessed as reduction in cell viability at 0.01 to 300 uM incubated for 4 hrs by LDH release assay. Type of data set: cell-based. The conditions noted are these: hepg2, 4 h.
Data set [6] deals with 2-amino-3-carboxymuconate-6-semialdehyde decarboxylase (Mus musculus) (UniProt Q8R519). The data set can be described thus: Inhibition of ACMSD in mouse AML12 cells assessed as reduction in FoxO1 phosphorylation at Ser256 residue incubated for 24 hrs. Type of data set: cell-based.
Sequence of 2-amino-3-carboxymuconate-6-semialdehyde decarboxylase (Mus musculus) (Q8R519 whole entry): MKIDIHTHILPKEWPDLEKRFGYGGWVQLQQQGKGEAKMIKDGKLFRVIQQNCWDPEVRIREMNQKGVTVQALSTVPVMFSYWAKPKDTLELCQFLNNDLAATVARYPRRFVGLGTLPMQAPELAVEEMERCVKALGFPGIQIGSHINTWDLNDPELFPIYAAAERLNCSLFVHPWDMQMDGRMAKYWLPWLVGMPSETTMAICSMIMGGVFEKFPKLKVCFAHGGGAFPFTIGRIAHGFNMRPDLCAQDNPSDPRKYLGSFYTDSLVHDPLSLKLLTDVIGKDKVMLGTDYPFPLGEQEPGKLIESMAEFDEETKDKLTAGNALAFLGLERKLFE
The test system of data set [7] is MDCK. The data set can be described thus: Inhibition of cisplatin-induced apoptosis in MDCK cells assessed as reduction in caspase 3/7 activity at 100 uM pre-incubated for 1 hr before cisplatin challenge for 16 hrs by luminescence based assay. Type of data set: functional, cell-based. The conditions noted are these: Canis lupus familiaris.
The test system of data set [8] is MDCK. Put plainly: Inhibition of cisplatin-induced apoptosis in MDCK cells assessed as reduction in caspase 3/7 activity at 30 to 125 uM pre-incubated for 1 hr before cisplatin challenge for 16 hrs by luminescence based assay. Type of data set: functional, cell-based. The conditions noted are these: Canis lupus familiaris.
The test system of data set [9] is MDCK. Put plainly: Inhibition of cisplatin-induced apoptosis in MDCK cells assessed as reduction in caspase 3/7 activity at 30 uM pre-incubated for 1 hr before cisplatin challenge for 16 hrs by luminescence based assay relative to control. Type of data set: functional. To be noted: Canis lupus familiaris.
For data set [10], the system named is MDCK. Put plainly: Inhibition of cisplatin-induced apoptosis in MDCK cells assessed as reduction in caspase 3/7 activity at 100 uM pre-incubated for 1 hr before cisplatin challenge for 16 hrs by luminescence based assay relative to control. Type of data set: functional. To be noted: Canis lupus familiaris.
In data set [11] the target is 2-amino-3-carboxymuconate-6-semialdehyde decarboxylase (Homo sapiens) (UniProt Q8TDX5). Put plainly: Inhibition of ACMSD in human primary hepatocytes assessed as increase in NAD\"\" concentration following compound replacement every 24 hrs by LC-MS/MS analysis relative to control. Type of data set: cell-based.
Sequence of 2-amino-3-carboxymuconate-6-semialdehyde decarboxylase (Homo sapiens) (Q8TDX5 whole entry, looked up): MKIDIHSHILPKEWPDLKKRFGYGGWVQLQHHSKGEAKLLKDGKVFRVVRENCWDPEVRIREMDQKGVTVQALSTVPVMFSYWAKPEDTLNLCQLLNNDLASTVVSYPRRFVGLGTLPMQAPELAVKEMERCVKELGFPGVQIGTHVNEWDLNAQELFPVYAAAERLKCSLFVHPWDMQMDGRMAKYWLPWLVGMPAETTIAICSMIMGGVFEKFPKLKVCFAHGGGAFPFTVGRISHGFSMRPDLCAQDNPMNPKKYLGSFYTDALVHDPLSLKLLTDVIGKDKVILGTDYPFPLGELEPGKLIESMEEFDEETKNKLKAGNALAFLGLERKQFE
The target in data set [12] is 2-amino-3-carboxymuconate-6-semialdehyde decarboxylase (Mus musculus) (UniProt Q8R519). Put plainly: Inhibition of ACMSD in C57BL/6J mouse primary hepatocytes assessed as increase in Pgc1a mRNA expression incubated for 24 hrs by RT-qPCR analysis. Type of data set: cell-based.
The target is the same in data set [13]. The data set can be described thus: Inhibition of ACMSD in C57BL/6J mouse primary hepatocytes assessed as increase in Sod2 mRNA expression incubated for 24 hrs by RT-qPCR analysis. Type of data set: cell-based.
For data set [14] the target is unchanged. The data set can be described thus: Inhibition of ACMSD in C57BL/6J mouse primary hepatocytes assessed as increase in Sod1 mRNA expression incubated for 24 hrs by RT-qPCR analysis. Type of data set: cell-based.
Data set [15] has as its target 2-amino-3-carboxymuconate-6-semialdehyde decarboxylase (Homo sapiens) (UniProt Q8TDX5). The data set can be described thus: Inhibition of ACMSD in human primary hepatocytes assessed as increase in NAD concentration at 5 uM following compound replacement every 24 hrs by LC-MS/MS analysis. Type of data set: cell-based.
The target is the same in data set [16]. Put plainly: Inhibition of ACMSD in human primary hepatocytes assessed as increase in NAD concentration at 250 uM following compound replacement every 24 hrs by LC-MS/MS analysis. Type of data set: cell-based.

In the case of `N#Cc1c(-c2ccccc2)nc(SCc2cccc(C(=O)O)c2)[nH]c1=O`, the inhibition entry in [1] was “Active”. Moreover, the inhibition entry in data set [2], in data set [3], in [4] and in data set [6] was “Dose-dependent effect” each time. In addition, the Activity result (in data set [5]; with HepG2) was “Non-Toxic” each time.
On to `N#Cc1c(-c2ccc(Cl)cc2)nc(SCc2ccc(C(=O)O)cc2)[nH]c1=O`, for which the Activity entry (in [5]; in the data set on HepG2) was “Non-Toxic” in each case.
For the molecule `N#Cc1c(-c2cccs2)nc(SCc2cccc(CC(=O)O)c2)[nH]c1=O`, the inhibition entry in the data set on MDCK [7] and in the data set with MDCK [8] was “Active” throughout. Also, the inhibition at 30 µM with MDCK [9] stood at 29%. Further, the inhibition at 100 µM in the data set with MDCK [10] is 75%.
For the molecule `N#Cc1c(-c2cccs2)nc(SCc2cccc(-c3nnn[nH]3)c2)[nH]c1=O`, the inhibition result in data set [2], in data set [3], in [11], in data set [12], in [13] and in data set [6] was “Dose-dependent effect” throughout. For the same molecule, in data set [14], the inhibition entry was “inactive”.
With `O=C(O)c1cccc(CSc2nc(-c3ccccc3)c(Br)c(=O)[nH]2)c1`, the Activity result (in data set [5]; with HepG2) was “Non-Toxic” each time.
For the molecule `N#Cc1c(-c2cccs2)nc(SCc2cccc(C(=O)O)c2)[nH]c1=O`, the inhibition entry in data set [1] and in data set [15] was “Active” in each case. Also, the Activity result (in [5]; with HepG2) was “Non-Toxic” in each case.
Consider `N#Cc1c(-c2nccs2)nc(SCc2cccc(C(=O)O)c2)[nH]c1=O`, for which the Activity entry (in data set [5]; in the data set on HepG2) was “Non-Toxic” each time.
For the molecule `CCCCC(CC)COC(=O)c1ccccc1C(=O)O` (stereo not drawn), the inhibition result in [16] was “Active”.
For the molecule `N#Cc1c(-c2cccs2)nc(SCc2cccc(-c3noc(=O)[nH]3)c2)[nH]c1=O`, the Activity entry (in data set [5]; in the data set with HepG2) was “Non-Toxic” throughout.
As to `N#Cc1c(-c2cccs2)nc(SCc2cccc(-c3nn[nH]n3)c2)[nH]c1=O`, the Activity result (in data set [5]; in the data set on HepG2) was “Non-Toxic” each time.
